We go through two molecules from US7144992B2, “Synergistic antimicrobial compositions and methods for reducing biofilm formation” (Kane Biotech Inc., priority 2004, dated 2006).

The nature of one data set: Solubility. The note with it: for solubility in organic solvents: DMSO, methanol, acetone and acetonitrile.
The subject of another data set is thioredoxin reductase. The conditions noted are these: enzyme crosslinked with the thiol-specific reagent; Donna et al., Prot. Sci. 7:369–375, 1998; cited from earlier work.

`O=C1C=CC(=O)N1c1ccc2ccc3cccc4ccc1c2c34` [PyrM, N-(1-pyrenyl) maleimide]: in the data set “Solubility”, the “solubility in organic solvents” value is “soluble in organic solvents” and the solubility in water entry is “not soluble in water”.
In the case of `O=C1C=CC(=O)N1c1ccccc1N1C(=O)C=CC1=O` [oPDM, N,N′-(1,2-phenylene) dimaleimide], in “Solubility”, the “solubility in organic solvents” value is given as “soluble in organic solvents” and the solubility in water entry is recorded as “not soluble in water”. Also, in the data set on thioredoxin reductase, the “decrease in thioredoxin reductase activity” value is 95%.
